Measurements as given in US20240279278A1, “NMU RECEPTOR 2 AGONISTS” (Boehringer Ingelheim International GmbH, priority 2023, published 2024).
In brackets after ≈: the same amount, converted by molar mass. Residues, ends and D or L forms follow the SMILES beside them.

How the values were obtained:
human NMUR1 receptor = molecular target: T1, human NMUR1 receptor (Homo sapiens, UniProt Q9HB89); assay: IP1 Gq HTRF assay, activation of human NMUR1 in buffer; type: cell-based; conditions: CHO-K1 cells expressing human NMUR1, stimulation buffer with 0.1% BSA; read-out: EC50 (hNMUR1) buffer
T1 construct: expressed in transfected cells; host or cells: CHO-K1
T1 sequence (Q9HB89 1-426): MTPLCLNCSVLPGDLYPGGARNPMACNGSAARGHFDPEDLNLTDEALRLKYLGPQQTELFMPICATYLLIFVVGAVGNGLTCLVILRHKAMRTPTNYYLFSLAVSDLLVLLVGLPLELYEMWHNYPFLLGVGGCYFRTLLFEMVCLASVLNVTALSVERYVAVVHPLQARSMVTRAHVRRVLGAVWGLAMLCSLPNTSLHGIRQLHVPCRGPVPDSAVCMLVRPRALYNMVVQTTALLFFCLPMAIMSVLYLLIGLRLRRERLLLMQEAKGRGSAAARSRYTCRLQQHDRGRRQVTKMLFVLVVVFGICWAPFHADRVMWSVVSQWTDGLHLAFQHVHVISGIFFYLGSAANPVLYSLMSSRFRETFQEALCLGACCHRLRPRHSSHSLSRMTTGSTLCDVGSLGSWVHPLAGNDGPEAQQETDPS
Summary of the method: (§1)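 IP-One HTRF competition (665/620 nm ratio) read after 1 h agonist exposure at 37 °C in pH 7.4 HEPES/HBSS stimulation buffer containing 50 mM LiCl, 0.1% BSA, 1% DMSO. Cells: CHO-K1 stably expressing human NMUR2 or NMUR1. EC50 by 4-parameter nonlinear regression of 8-point curves.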

human NMUR2 receptor [1] = molecular target: T2, human NMUR2 receptor (Homo sapiens, UniProt Q9GZQ4); assay: Radioligand binding competition assay (RLB), human NMUR2 receptor binding (SPA, [125I]-Neuromedin U-25); design: host or cells: CHO-K1; conditions: CHO-K1 hNMUR2 cell membranes, 4 hours at RT
T2 sequence (Q9GZQ4 whole entry): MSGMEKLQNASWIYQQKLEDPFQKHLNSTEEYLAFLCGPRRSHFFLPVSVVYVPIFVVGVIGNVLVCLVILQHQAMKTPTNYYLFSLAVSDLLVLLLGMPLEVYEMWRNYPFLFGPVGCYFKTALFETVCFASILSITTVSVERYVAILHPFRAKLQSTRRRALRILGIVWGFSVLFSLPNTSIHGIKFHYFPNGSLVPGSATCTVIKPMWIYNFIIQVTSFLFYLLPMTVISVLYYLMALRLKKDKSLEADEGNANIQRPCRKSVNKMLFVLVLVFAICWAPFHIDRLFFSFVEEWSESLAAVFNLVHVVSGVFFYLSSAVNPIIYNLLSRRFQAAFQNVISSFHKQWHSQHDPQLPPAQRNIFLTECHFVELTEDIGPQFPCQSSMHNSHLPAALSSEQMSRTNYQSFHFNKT
Excerpt: Example 1: Radioligand Binding Competition Assay (RLB) Human NMUR2 Receptor Binding
The test is based on membranes prepared from a Human NMUR2/Apoaequorin Stable Cell Line (Creative Biogene, Cat. No. CSC-RG1309).
Cell Line Description: CHO-NMUR2 cell line is clonally derived from a CHO-K1 cell line, which has been transfected with a bicistronic expression plasmid containing the sequence coding for the human neuromedin U receptor 2 (AF242874.1). MOSAIC-ID: CL16550616.
Membrane preparation: Cells were broken by nitrogen cavitation (900 psi, 1 hour). Intact cells were removed by centrifugation (400 rcf (relative centrifugal force), 10 minutes, 4° C.) before the crude membrane fraction was collected by ultracentrifugation (20.000 rcf, 1 hour, 4° C.).
2) Human NMUR2 Receptor Binding Assay (Radioligand: [125I]-Neuromedin U-25 (Human))
In this Scintillation Proximity Assay (SPA) design, the membranes immobilize directly to the PVT-WGA-PEI type A beads (polyethyleneimine treated polyvinyltoluene beads coupled to wheatgerm agglutinin, Perkin Elmer) via interactions of wheat germ agglutinate and glycosylated membrane structures. Thereby the radioactively la-belled ligand, bound to NMUR2 receptors on the membrane, comes in close proximity to the solid scintillator of the PVT bead. Radioactive human neuromedin U-25 then stimulates the scintillant to emit light. In contrast, radioligand not bound to the receptor is too distant from the bead to elicit a signal.
For the Scintillation Proximity Assay the CHO-K1 hNMUR2 cell membranes and SPA-beads are diluted to concentrations, which assure a robust signal to background ratio. The SPA incubation buffer consists of 25 mM Hepes (pH=7.0), 5 mM MgCl2, 1 mM CaCl2, 10 ug/mL Saponine and 0.1% bovine serum albumin and is used for all dilutions.
Final assay setup in 96-well plate: 20 μL of 10× test compound dilutions+40 μL of 5× [125l]-Neuromedin U-25 (1× approx. 30 pM; 2000 μCi/mmol)+60 μL membrane dilution (approx. 2.5 μg membrane protein)+80 μL SPA bead dilution (0.75 mg).
The assay is incubated for 4 hours at RT, including controls for specific binding where no displacer is added and non-specific binding by adding unlabeled hNMU-25 at 100 nM. Bound radioactivity is determined by scintillation counting (MicroBeta Trilux 1450, Perkin Elmer, detection of 125I decay). […] The system assumes one binding site with no relevant radioligand depletion (<10%) and that the binding is reversible and at equilibrium.

human NMUR2 receptor [2] = molecular target: T2, human NMUR2 receptor; assay: IP1 Gq HTRF assay, activation of human NMUR2 in buffer; type: cell-based; design: expressed in transfected cells; host or cells: CHO-K1; conditions: for EC50: CHO-K1 cells expressing human NMUR2, stimulation buffer with 0.1% BSA, read-out: EC50 (hNMUR2) buffer; for EC50 (hNMUR1)/EC50 (hNMUR2): selectivity for NMUR2 over NMUR1 from IP1 assay in buffer (Example 3)
Summary of the method: as §1

physchem = type: physicochemical
Method: Example 6: Solubility Determination
Peptides (as TFA-salts) were weighed out in a filter unit (Mini-UniPrep Syringeless Filter 0.45 μm, Whatman PVDF), and 0.1 M phosphate buffer at pH 6 to 8 was added to achieve 10 mg/mL final peptide concentration. The peptides were dissolved by shaking the filter units horizontally at 350 rpm for 2 hours at room temperature. Samples were then filtered to remove any insoluble particles. Controls were prepared by weighing out the corresponding peptide solid material and dissolving it in an appropriate vehicle (e.g. buffer or DMSO) to a final concentration of 1 mg/mL. Both, the control and sample were analyzed by reversed phase chromatography. The area under the peak of the sample was compared to the control and the solubility was calculated based on that ratio. The pH was measured and recorded for each sample.

SMILES	EC50 (human NMUR1 receptor) [nM]	Ki (human NMUR2 receptor [1]) [nM]	EC50 (human NMUR2 receptor [2]) [nM]	EC50 (hNMUR1)/EC50 (hNMUR2) (human NMUR2 receptor [2])	solubility at 2 h (physchem; pH 7.5) [µg/mL]	solubility at 2 h (physchem; pH 7.2) [µg/mL]	solubility at 2 h (physchem; pH 7) [µg/mL]	solubility at 2 h (physchem; pH 7.3) [µg/mL]
CCCC[C@H](NC(=O)[C@H](CC(C)C)N(C)C(=O)[C@H](Cc1ccccc1)NC(=O)[C@H](Cc1ccc(O)cc1)NC(=O)CN1CCN(CCNC(=O)CN(C)C(=O)CN(C)C(=O)CN(C)C(=O)CN(C)C(=O)CN(C)C(=O)CN(C)C(=O)CN(C)C(=O)CN(C)C(=O)CN(C)C(=O)CN(C)C(=O)CN(C)C(=O)CN(C)C(=O)CN(C)C(=O)CN(C)C(=O)CN(C)C(=O)CC[C@H](NC(=O)CC[C@H](NC(=O)CC[C@H](NC(=O)CCCCCCCCCCCCCCCCCCC(=O)O)C(=O)O)C(=O)O)C(=O)O)CC1)C(=O)N[C@@H](CCCN)C(=O)N1CCC[C@H]1C(=O)N[C@@H](CCCNC(=N)N)C(=O)NCC(N)=O [Compound 1, C20DA-gGlu3-Sar15-AEPipAc-Tyr-Phe-NMeLeu-Nle-Orn-Pro-Arg-Gly-NH2] (HELM PEPTIDE1{[O=C(O)CCCCCCCCCCCCCCCCCCC(=O)[*:2]].[gGlu].[gGlu].[gGlu].[Sar].[Sar].[Sar].[Sar].[Sar].[Sar].[Sar].[Sar].[Sar].[Sar].[Sar].[Sar].[Sar].[Sar].[Sar].[O=C(CN1CCN(CCN[*:1])CC1)[*:2]].Y.F.[meL].[Nle].[Orn].P.R.G.[am]}$$$$V2.0)	890	8.6	1.4	635	8200 (≈ 2790 µM)			
CCCC[C@H](NC(=O)[C@H](CC(C)C)N(C)C(=O)[C@H](Cc1ccccc1)NC(=O)[C@H](Cc1ccc(O)cc1)NC(=O)CN1CCN(CCNC(=O)CN(C)C(=O)CN(C)C(=O)CN(C)C(=O)CN(C)C(=O)CN(C)C(=O)CN(C)C(=O)CN(C)C(=O)CN(C)C(=O)CN(C)C(=O)CN(C)C(=O)CN(C)C(=O)CN(C)C(=O)CC[C@H](NC(=O)CC[C@H](NC(=O)CC[C@H](NC(=O)CCCCCCCCCCCCCCCCCCC(=O)O)C(=O)O)C(=O)O)C(=O)O)CC1)C(=O)N[C@@H](CCCNC(=N)N)C(=O)N1CCC[C@H]1C(=O)N[C@@H](CCCNC(=N)N)C(=O)NCC(N)=O [Compound 6, C20DA-gGlu3-Sar12-AEPipAc-Tyr-Phe-NMeLeu-Nle-Arg-Pro-Arg-Gly-NH2]	120	10.1	2			4600 (≈ 1660 µM)		
CCCC[C@H](NC(=O)[C@H](CC(C)C)N(C)C(=O)[C@H](Cc1ccccc1)NC(=O)[C@H](Cc1ccc(O)cc1)NC(=O)CN1CCN(CCNC(=O)CN(C)C(=O)CN(C)C(=O)CN(C)C(=O)CN(C)C(=O)CN(C)C(=O)CN(C)C(=O)CN(C)C(=O)CN(C)C(=O)CN(C)C(=O)CN(C)C(=O)CN(C)C(=O)CN(C)C(=O)CN(C)C(=O)CN(C)C(=O)CN(C)C(=O)CC[C@H](NC(=O)CC[C@H](NC(=O)CC[C@H](NC(=O)CCCCCCCCCCCCCCCCC(=O)O)C(=O)O)C(=O)O)C(=O)O)CC1)C(=O)N[C@@H](CCCNC(=N)N)C(=O)N1CCC[C@H]1C(=O)N[C@@H](CCCNC(=N)N)C(=O)NCC(N)=O [Compound 7, C18DA-gGlu3-Sar15-AEPipAc-Tyr-Phe-NMeLeu-Nle-Arg-Pro-Arg-Gly-NH2] (HELM PEPTIDE1{[O=C(O)CCCCCCCCCCCCCCCCC(=O)[*:2]].[gGlu].[gGlu].[gGlu].[Sar].[Sar].[Sar].[Sar].[Sar].[Sar].[Sar].[Sar].[Sar].[Sar].[Sar].[Sar].[Sar].[Sar].[Sar].[O=C(CN1CCN(CCN[*:1])CC1)[*:2]].Y.F.[meL].[Nle].R.P.R.G.[am]}$$$$V2.0)	250	22.8	1.2	208			7000 (≈ 2370 µM)	
CCCC[C@H](NC(=O)[C@H](CC(C)C)N(C)C(=O)[C@H](Cc1ccccc1)NC(=O)[C@H](Cc1ccc(O)cc1)NC(=O)CN1CCN(CCNC(=O)CN(C)C(=O)CN(C)C(=O)CN(C)C(=O)CN(C)C(=O)CN(C)C(=O)CN(C)C(=O)CN(C)C(=O)CN(C)C(=O)CN(C)C(=O)CN(C)C(=O)CN(C)C(=O)CN(C)C(=O)CC[C@H](NC(=O)CC[C@H](NC(=O)CC[C@H](NC(=O)CCCCCCCCCCCCCCCCCCC(=O)O)C(=O)O)C(=O)O)C(=O)O)CC1)C(=O)N[C@@H](CCN)C(=O)N1CCC[C@H]1C(=O)N[C@@H](CCCNC(=N)N)C(=O)NCC(N)=O [Compound 8, C20DA-gGlu3-Sar12-AEPipAc-Tyr-Phe-NMeLeu-Nle-Dbu-Pro-Arg-Gly-NH2]	1000	89.1	3.1					1900 (≈ 701 µM)
CCCC[C@H](NC(=O)[C@H](CC(C)C)N(C)C(=O)[C@H](Cc1ccccc1)NC(=O)[C@H](Cc1ccc(O)cc1)NC(=O)CN1CCN(CCNC(=O)CN(C)C(=O)CN(C)C(=O)CN(C)C(=O)CN(C)C(=O)CN(C)C(=O)CN(C)C(=O)CN(C)C(=O)CN(C)C(=O)CN(C)C(=O)CN(C)C(=O)CN(C)C(=O)CN(C)C(=O)CC[C@H](NC(=O)CC[C@H](NC(=O)CC[C@H](NC(=O)CCCCCCCCCCCCCCCCC(=O)O)C(=O)O)C(=O)O)C(=O)O)CC1)C(=O)N[C@@H](CCCN)C(=O)N(C)[C@@H](C)C(=O)N[C@@H](CCCNC(=N)N)C(=O)NCC(N)=O [Compound 20, C18DA-gGlu3-Sar12-AEPipAc-Tyr-Phe-NMeLeu-Nle-Orn-NMeAla-Arg-Gly-NH2]	> 1000	23.7	2.2			8400 (≈ 3130 µM)		
CCCC[C@H](NC(=O)[C@H](CC(C)C)N(C)C(=O)[C@H](Cc1ccccc1)NC(=O)[C@H](Cc1ccc(O)cc1)NC(=O)CN1CCN(CCNC(=O)CN(C)C(=O)CN(C)C(=O)CN(C)C(=O)CN(C)C(=O)CN(C)C(=O)CN(C)C(=O)CN(C)C(=O)CN(C)C(=O)CN(C)C(=O)CN(C)C(=O)CN(C)C(=O)CN(C)C(=O)CN(C)C(=O)CN(C)C(=O)CN(C)C(=O)CC[C@H](NC(=O)CC[C@H](NC(=O)CC[C@H](NC(=O)CCCCCCCCCCCCCCCCC(=O)O)C(=O)O)C(=O)O)C(=O)O)CC1)C(=O)N[C@@H](CCCN)C(=O)N1CCC[C@H]1C(=O)N[C@@H](CCCNC(=N)N)C(=O)NCC(N)=O [Compound 21, C18DA-gGlu3-Sar15-AEPipAc-Tyr-Phe-NMeLeu-Nle-Orn-Pro-Arg-Gly-NH2] (HELM PEPTIDE1{[O=C(O)CCCCCCCCCCCCCCCCC(=O)[*:2]].[gGlu].[gGlu].[gGlu].[Sar].[Sar].[Sar].[Sar].[Sar].[Sar].[Sar].[Sar].[Sar].[Sar].[Sar].[Sar].[Sar].[Sar].[Sar].[O=C(CN1CCN(CCN[*:1])CC1)[*:2]].Y.F.[meL].[Nle].[Orn].P.R.G.[am]}$$$$V2.0)	> 1000	55.9	2.6					7500 (≈ 2580 µM)
